Data taken from US11548918B2, “Sodium channel protein Nav1.4-targeting polypeptide and use thereof” (priority 2021, dated 2023).
Where no end group is shown, it is not given here.

Test system: skin wrinkles
Assay: Clinical trial of wrinkle reduction, wrinkle volume measured with PRIMOS CR
Assay type: in vivo, human
Settings: lotion with 0.0003 wt % NaV-B, 0.1 g at corners of eyes, female volunteers
Protocol: The capacity of NaV-B in reducing skin wrinkles was evaluated by clinical trials, wherein a total of 30 female volunteers ranging from 35 to 55 years old were participating in the trials. In the trials, 0.1 g of lotion was evenly applied to the corners of the volunteers' eyes. The wrinkle volume of each volunteer was measured with a wrinkle analyzer PRIMOS CR at various moments: before application, 15 minutes after application, 1 hour after application, 2 hours after application, and 4 hours after application.
The lotion was prepared by adding NaV-B, glycerin, 1,3-butanediol, sodium hyaluronate, and methylparaben into deionized water according to the following proportions, and stirring until all the ingredients were dissolved.
Results: The reduced wrinkle volumes of each volunteer were obtained by subtracting the volume measured before application from the volumes measured 15 minutes after application, 1 hour after application, 2 hours after application, and 4 hours after application. The percentages of reduced wrinkle volume of each volunteer were obtained through dividing the reduced wrinkle volumes by the volume measured before application.

Synthetic Nav1.4-targeting polypeptide, amino acid sequence GHCCGDEYRKWCGKRVCRNKARCC (disulfide (positions not given here); not fully specified (bridges)) [NaV-B]
percentage of reduced wrinkle volume (average of all volunteers) (15 minutes after application): more than 9%
percentage of reduced wrinkle volume (average of all volunteers) (4 hours after application): more than 15%
